For one series, the target named is T1, human HGPRT (Homo sapiens, UniProt P00492).
T1 construct: made in house
T1 sequence (P00492 1-218): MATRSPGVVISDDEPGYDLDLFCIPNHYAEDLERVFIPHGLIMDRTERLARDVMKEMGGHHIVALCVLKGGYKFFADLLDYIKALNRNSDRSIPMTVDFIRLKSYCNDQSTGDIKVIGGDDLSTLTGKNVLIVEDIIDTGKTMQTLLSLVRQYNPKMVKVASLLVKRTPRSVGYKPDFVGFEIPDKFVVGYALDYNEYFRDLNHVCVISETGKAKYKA
The series can be described thus: Determination of Ki values, human HGPRT. Format: biochemical. To be noted: 0.1 M Tris-HCl, 10 mM MgCl2, pH 7.4; guanine 60 μM, variable PRib-PP; mean ± SD of three independent experiments. As to the method: (§1) The human and Pf enzymes were purified as described previously.^[ [7] ^, [26] ^] All assays were performed in 0.1 M Tris‐HCl, 10 mM MgCl2, pH 7.4. […] The K i was calculated using the equation, v o = Vmax.[S]o/[S]o + K m(app) and K m(app) = K m [1 + [I]/K i ].

The target of a further series is T2, PfHGXPRT (Plasmodium falciparum, UniProt P20035).
T2 construct: made in house
T2 sequence (P20035 1-231): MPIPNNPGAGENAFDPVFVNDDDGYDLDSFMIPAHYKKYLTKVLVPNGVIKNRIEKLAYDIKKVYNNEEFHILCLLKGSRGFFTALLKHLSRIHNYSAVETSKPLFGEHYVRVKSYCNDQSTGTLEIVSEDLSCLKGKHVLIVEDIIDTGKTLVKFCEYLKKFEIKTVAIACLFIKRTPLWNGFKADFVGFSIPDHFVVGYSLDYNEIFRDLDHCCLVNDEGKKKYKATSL
Nature of the series: Determination of Ki values, PfHGXPRT. The conditions noted are these: 0.1 M Tris-HCl, 10 mM MgCl2, pH 7.4; guanine 60 μM, variable PRib-PP; mean ± SD of three independent experiments. Format: biochemical. The method, then: as §1

A further series relates to P. falciparum D6. The series can be described thus: In vitro antimalarial activity, 3H-hypoxanthine growth inhibition assay, D6 line. Format: cell-based, Plasmodium falciparum. The conditions noted are these: Plasmodium falciparum, D6, Erythrocyte, 96 h, Pf infected erythrocytes, D6 strain sensitive to chloroquine, mean ± SD of three independent experiments. As to the method: (§2) The IC50 values were determined as previously described.^[ [32] ^] P. falciparum D6 (Sierra‐Leone) laboratory line, sensitive to most antimalarial drugs, and W2 (Indochina) line, resistant to chloroquine and pyrimethamine, were maintained as previously described^[ [33] ^] in medium consisted of 10.4 g L^−1 RPMI‐1640‐LPLF powder (Gibco BRL), 5.97 g L^−1 HEPES buffer (MP Biomedicals, USA), 2.0 g L^−1 d‐glucose (BDH chemicals, Australia), 0.05 g L^−1 hypoxanthine (Sigma, USA) and 40 mg L^−1 gentamycin (Pfizer, Australia), supplemented with 0.21% NaHCO3 and 10% human plasma prior to use. Red blood cells O (Rh+) type were obtained from the Australian Red Cross Blood Service and added to 4% haematocrit. Cultures were routinely synchronized using D‐sorbitol.^[ [34] ^] To evaluate the antimalarial activity of the ANPs, the ^3H‐hypoxanthine growth inhibition assay was utilized, where the uptake of ^3H‐hypoxanthine by malaria parasites is used as a surrogate marker for parasite growth. For these assays, stock solutions of the tested compounds were made to concentrations of 20–40 mM in DMSO or water and subsequently diluted in hypoxanthine‐free complete media prior to assay. The assays (in 96‐well plate format) were initiated when most parasites (> 90%) were at the early trophozoite (ring) stage. Parasite cultures (100 μL per well) at 0.5% initial parasitemia and 2% hematocrit in hypoxanthine‐free RPMI1640‐LPLF medium were exposed to ten twofold serial dilutions of the compounds and chloroquine (reference drug) for 96 h, with ^3H‐hypoxanthine (0.2 μCi well^−1) added ≈48 h after the beginning of the experiment.
(§3) The ^3H‐hypoxanthine incorporation data were analyzed, and sigmoidal growth inhibition curves were produced by nonlinear regression analysis of the ^3H‐hypoxanthine incorporation data versus log‐transformed concentrations of the compounds using Graphpad Prism V5.0 software (GraphPad Software Inc. USA). […] The IC50 values were based on three independent experiments, with mean ± SD calculated.

The subject of another series is P. falciparum W2. The series can be described thus: In vitro antimalarial activity, 3H-hypoxanthine growth inhibition assay, W2 line. Format: cell-based, Plasmodium falciparum. The conditions noted are these: Plasmodium falciparum, W2, Erythrocyte, 96 h, Pf infected erythrocytes, W2 strain resistant to chloroquine, mean ± SD of three independent experiments. The method, then:
as §2, §3

For the next series, the system named is HL-60. The series can be described thus: Cytotoxicity of the prodrug in human cells (CellTiter-Glo 2.0), HL-60. The conditions noted are these: 10 µM, versus untreated control; mean ± SD. It is filed as cell-based. The method, then:
(§4) Compound cytotoxicity was evaluated in nontumor human dermal fibroblasts (NHDF), CCRF‐CEM, HL‐60, HeLa, and HepG2 cells. All cell lines were obtained from ATCC (Manassas, VA, USA). The cytotoxicity was assayed using CellTiter‐Glo 2.0 detection reagent (Promega, Madison, USA) according to the manufacturer's protocol. The concentration of prodrug used in this assay was 10 μM. This concentration was chosen as it would more accurately reflect the expected concentration in an in vitro assessment.
A general note: In ATP-based viability assays light output follows the ATP content of the culture.

The subject of the next series is CCRF-CEM. Nature of the series: Cytotoxicity of the prodrug in human cells (CellTiter-Glo 2.0), CCRF-CEM. It is filed as cell-based. To be noted: 10 µM, versus untreated control; mean ± SD. As to the method:
as §4

The next series has as its system HeLa. Nature of the series: Cytotoxicity of the prodrug in human cells (CellTiter-Glo 2.0), HeLa. Format: cell-based. The conditions noted are these: 10 µM, versus untreated control; mean ± SD. As to the method:
as §4

A further series deals with HepG2. The series can be described thus: Cytotoxicity of the prodrug in human cells (CellTiter-Glo 2.0), HepG2. Format: cell-based. To be noted: 10 µM, versus untreated control; mean ± SD. As to the method:
as §4

In a further series the test system is NHDF. Nature of the series: Cytotoxicity of the prodrug in human cells (CellTiter-Glo 2.0), NHDF. It is filed as cell-based. The conditions noted are these: 10 µM, versus untreated control; mean ± SD. The method, then:
as §4

This is an account of results in publication PMC12503909, “C1′‐Branched Acyclic Nucleoside Phosphonates as Inhibitors of Plasmodium Falciparum 6‐Oxopurine Phosphoribosyltransferase” (Chemmedchem, 2025).

Each structure is given as a SMILES string. Counter-ions that a name gives are not always drawn.

By Ki is commonly meant a measure of affinity in units of concentration, obtained from inhibition or displacement. Take `O=c1[nH]cnc2c1cnn2C(CCOCP(=O)(O)O)OCCCO` (centres unmarked) [20i, Sodium salt of ((3‐(3‐hydroxypropoxy)‐3‐(4‐oxo‐4,5‐dihydro‐1H‐pyrazolo[3,4‐d]pyrimidin‐1‐yl)propoxy)methyl)phosphonic acid]: the Ki on human HGPRT and on PfHGXPRT was above 60 µM in each case.
In general, IC50 refers to the concentration needed to halve the response being measured. A higher IC50 goes with weaker potency. `CCOC(=O)[C@H](Cc1ccccc1)NP(=O)(COCC(OCCO)n1cnc2c(=O)[nH]c(N)nc21)N[C@@H](Cc1ccccc1)C(=O)OCC` (mixture of isomers) [21b, Bis‐(L‐phenylalaninate ethyl ester) prodrug of ((2‐(guanin‐9‐yl)‐2‐(2‐hydroxyethoxy)ethoxy)methyl)phosphonic acid]: the values for the IC50 in the series on P. falciparum D6 and in the series on P. falciparum W2 were 84 ± 10 µM and 79 ± 8 µM, respectively. For the same compound, in the series with HL-60, the “Viability HL-60” value is given as 100 ± 2 % control. Moreover, the “Viability CCRF-CEM” value in the series with CCRF-CEM came to 97 ± 1 % control. The “Viability HeLa” value in the series with HeLa was 91 ± 2 % control. Further, the “Viability HepG2” value with HepG2 is reported as 93 ± 4 % control. The “Viability NHDF” value in the series on NHDF is recorded as 94 ± 8 % control.
On to `CCOC(=O)[C@H](Cc1ccccc1)NP(=O)(CCOCC(OCCO)n1cnc2c(=O)[nH]c(N)nc21)N[C@@H](Cc1ccccc1)C(=O)OCC` (some centres unmarked) [21d, Bis‐(L‐phenylalaninate ethyl ester) prodrug of (2‐(2‐(guanin‐9‐yl)‐2‐(2‐hydroxyethoxy)ethoxy)ethyl) phosphonic acid], for which the half-inhibitory concentration (IC50) with P. falciparum D6 came out at 64 ± 6 µM; with P. falciparum W2, 39 ± 5 µM. Also, the “Viability HL-60” value in the series on HL-60 was 105 ± 1 % control. The “Viability CCRF-CEM” value with CCRF-CEM came out at 99 ± 4 % control. The “Viability HeLa” value in the series on HeLa came to 100 ± 2 % control. Further, the “Viability HepG2” value with HepG2 was 107 ± 2 % control. For the same compound, the “Viability NHDF” value in the series on NHDF is listed as 112 ± 1 % control.
Take `O=c1[nH]c(Cl)nc2c1ncn2C(COCCP(=O)(O)O)OCCO` (centres unmarked) [20e, Sodium salt of (2‐(2‐(2‐chlorohypoxanthin‐9‐yl)‐2‐(2‐hydroxyethoxy)ethoxy)ethyl)phosphonic acid]: the figures for the Ki on human HGPRT and at PfHGXPRT were above 60 µM and 50 ± 10 µM, respectively.
For `CCOC(=O)[C@H](Cc1ccccc1)NP(=O)(COCCC(OCCCO)n1cnc2c(=O)[nH]cnc21)N[C@@H](Cc1ccccc1)C(=O)OCC` (some centres unmarked) [21e, Bis‐(L‐phenylalaninate ethyl ester) prodrug of ((3‐(3‐hydroxypropoxy)‐3‐(hypoxanthin‐9‐yl)propoxy)methyl) phosphonic acid], the IC50 in the series on P. falciparum D6 came out at 14 ± 2 µM; with P. falciparum W2, 41 ± 5 µM. Further, the “Viability HL-60” value in the series with HL-60 came to 110 ± 1 % control. The “Viability CCRF-CEM” value in the series with CCRF-CEM was determined as 105 ± 2 % control. For the same compound, the “Viability HeLa” value with HeLa was 105 ± 1 % control. Further, in the series on HepG2, the “Viability HepG2” value was 106 ± 3 % control. The “Viability NHDF” value in the series on NHDF is given as 110 ± 7 % control.
Consider `Nc1nc2c(ncn2C(COCCP(=O)(O)O)OCCOCP(=O)(O)O)c(=O)[nH]1` (centres unmarked) [18b, Sodium salt of (2‐(2‐(guanin‐9‐yl)‐2‐(2‐(phosphonatomethoxy)ethoxy)ethoxy)ethyl)phosphonic acid], for which the Ki at human HGPRT came out at 0.7 ± 0.4 µM; on PfHGXPRT it was 1 ± 0.2 µM.
In the case of `Nc1nc2c(ncn2C(COCP(=O)(O)O)OCCO)c(=O)[nH]1` (centres unmarked) [20b, Sodium salt of ((2‐(guanin‐9‐yl)‐2‐(2‐hydroxyethoxy)ethoxy)methyl)phosphonic acid], the inhibitory constant (Ki) at human HGPRT turned out to be 30 ± 5 µM; at PfHGXPRT, 5 ± 1 µM.
On to `CCOC(=O)[C@H](Cc1ccccc1)NP(=O)(COCCC(OCCCO)n1cnc2c(=O)[nH]c(N)nc21)N[C@@H](Cc1ccccc1)C(=O)OCC` (some centres unmarked) [21f, Bis‐(L‐phenylalaninate ethyl ester) prodrug of ((3‐(3‐hydroxypropoxy)‐3‐(guanin‐9‐yl)propoxy)methyl) phosphonic acid], for which the results for the IC50 with P. falciparum D6 and with P. falciparum W2 were 13 ± 2 µM and 26 ± 14 µM, respectively. In addition, in the series with HL-60, the “Viability HL-60” value was 105 ± 2 % control. Further, the “Viability CCRF-CEM” value in the series on CCRF-CEM stood at 103 ± 1 % control. In the series with HeLa, the “Viability HeLa” value was 106 ± 1 % control. The “Viability HepG2” value in the series on HepG2 came to 110 ± 2 % control. In the series with NHDF, the “Viability NHDF” value amounted to 116 ± 4 % control.
Consider `O=c1[nH]cnc2c1ncn2C(CCOCP(=O)(O)O)OCCCO` (centres unmarked) [20g, Sodium salt of ((3‐(3‐hydroxypropoxy)‐3‐(hypoxanthin‐9‐yl)propoxy)methyl)phosphonic acid], for which the inhibitory constant (Ki) at human HGPRT and on PfHGXPRT was above 60 µM throughout.
`Nc1nc2c(ncn2C(CCOCP(=O)(O)O)OCCCO)c(=O)[nH]1` (centres unmarked) [20h, Sodium salt of ((3‐(guanin‐9‐yl)‐3‐(3‐hydroxypropoxy)propoxy)methyl)phosphonic acid]: the inhibition constant (Ki) on human HGPRT is 10 ± 3 µM; on PfHGXPRT it was above 60 µM.
The corresponding values for `O=c1[nH]cnc2c1cnn2C(COCCP(=O)(O)O)OCCO` (centres unmarked) [20f, Sodium salt of (2‐(2‐(2‐hydroxyethoxy)‐2‐(4‐oxo‐4,5‐dihydro‐1H‐pyrazolo[3,4‐d]pyrimidin‐1‐yl)ethoxy)ethyl)phosphonic acid] are above 60 µM and above 60 µM.
Turning to `O=c1[nH]cnc2c1ncn2C(COCP(=O)(O)O)OCCO` (centres unmarked) [20a, Sodium salt of ((2‐(2‐hydroxyethoxy)‐2‐(hypoxanthin‐9‐yl)ethoxy)methyl) phosphonic acid], at human HGPRT, the Ki was 160 µM.
As for `Nc1nc2c(ncn2C(COCCP(=O)(O)O)OCCO)c(=O)[nH]1` (centres unmarked) [20d, Sodium salt of (2‐(2‐(2‐hydroxyethoxy)‐2‐(guanin‐9‐yl)ethoxy)ethyl)phosphonic acid], the inhibitory constant (Ki) on human HGPRT was 2.5 ± 0.4 µM; on PfHGXPRT, 0.4 ± 0.1 µM.
The corresponding values for `O=c1[nH]cnc2c1ncn2C(COCCP(=O)(O)O)OCCOCP(=O)(O)O` (centres unmarked) [18a, Sodium salt of (2‐(2‐(hypoxanthin‐9‐yl)‐2‐(2‐(phosphonatomethoxy)ethoxy)ethoxy)ethyl)phosphonic acid] are above 60 µM and 5 ± 1 µM.
In the same order, the values of `O=c1[nH]cnc2c1ncn2C(COCCP(=O)(O)O)OCCO` (centres unmarked) [20c, Sodium salt of (2‐(2‐(2‐hydroxyethoxy)‐2‐(hypoxanthin‐9‐yl)ethoxy)ethyl)phosphonic acid] are above 20 µM and 10 ± 5 µM.
In the same order, the values of `CCOC(COCCP(=O)(O)O)n1cnc2c(=O)[nH]c(N)nc21` (centres unmarked) [compound 25, Sodium salt of (2‐(2‐(guanin‐9‐yl)‐2‐ethoxyethoxy)ethyl)phosphonic acid] are 3.7 ± 0.9 µM and 3 ± 0.5 µM.
On to `CCOC(=O)[C@H](Cc1ccccc1)NP(=O)(CCOCC(OCCOCP(=O)(N[C@@H](Cc1ccccc1)C(=O)OCC)N[C@@H](Cc1ccccc1)C(=O)OCC)n1cnc2c(=O)[nH]c(N)nc21)N[C@@H](Cc1ccccc1)C(=O)OCC` (mixture of isomers) [19b, Tetra‐(L‐phenylalaninate ethyl ester) prodrug of (2‐(2‐(guanin‐9‐yl)‐2‐(2‐(phosphonatomethoxy)ethoxy)ethoxy)ethyl)phosphonic acid], for which the concentration for half-maximal inhibition (IC50) turned out to be 4.3 ± 0.7 µM in the series on P. falciparum D6 and 8.8 ± 2.6 µM in the series with P. falciparum W2.
